Molecules are shown by their SMILES.

The target in this test is T1, human somatostatin receptor subtype 2 (Homo sapiens, UniProt P30874).
T1 construct: expressed in transfected cells; host or cells: CHO (Chinese hamster ovary) cells, G-418 selected
T1 sequence (P30874 whole entry): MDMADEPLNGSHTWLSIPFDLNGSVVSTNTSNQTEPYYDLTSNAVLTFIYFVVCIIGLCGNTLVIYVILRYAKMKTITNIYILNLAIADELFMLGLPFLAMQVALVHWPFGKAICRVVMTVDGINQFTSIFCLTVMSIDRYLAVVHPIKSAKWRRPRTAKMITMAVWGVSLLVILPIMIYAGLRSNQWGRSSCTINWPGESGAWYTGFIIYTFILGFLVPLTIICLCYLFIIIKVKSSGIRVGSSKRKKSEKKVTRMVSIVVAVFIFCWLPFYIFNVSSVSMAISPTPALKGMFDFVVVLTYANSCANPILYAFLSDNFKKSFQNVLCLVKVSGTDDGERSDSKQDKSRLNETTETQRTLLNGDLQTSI
As to the kind of experiment: cAMP assay (functional assay for SSTR2 agonists). Type of test: cell-based. The note with it: CHO cells expressing human SSTR2; intracellular cAMP with forskolin, HTRF; read-out: SSTR2a EC50. Put shortly:
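CHO cells expressing human SSTR2 were treated with compound for 15 min at 37° C in buffer with forskolin, 0.2 mM IBMX and 0.1% BSA. Intracellular cAMP was read by HTRF after 1-24 h lysis at room temperature, and EC50 came from cAMP versus compound concentration curves.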
A general note: Changes in cAMP serve as a functional read-out for many G protein-coupled receptors.
A word on the EC50: it is the concentration needed to bring the measured effect to its halfway point. For the compound `COc1ccc(F)c(-c2cc3c(cc2C)N=CN(c2cc(C)cc(Cl)c2)C3C(=O)N(C)C[C@@H]2CCCN2)c1` (stereo partly drawn) [Compound 2-5, 3-(3-chloro-5-methylphenyl)-6-(2-fluoro-5-methoxyphenyl)-N,7-dimethyl-N-[(2S)-pyrrolidin-2-ylmethyl]-3,4-dihydroquinazoline-4-carboxamide], the EC50 is under 100 nM.

On to `Cc1cc(C#N)cc(-c2cc3c(cc2C)N=CN(c2cc(C)cc(Cl)c2)C3C(=O)N(C)C[C@@H]2CCCN2)c1` (stereo partly drawn) [Compound 1-39, 3-(3-chloro-5-methylphenyl)-6-(3-cyano-5-methylphenyl)-N,7-dimethyl-N-[(2S)-pyrrolidin-2-ylmethyl]-3,4-dihydroquinazoline-4-carboxamide], for which the EC50 is under 100 nM.

With `Cc1cc(Cl)cc(N2C=Nc3cc(C)c(-c4cncc(O)c4)cc3C2C(=O)N(C)C[C@@H]2CCCN2)c1` (stereo partly drawn) [Compound 2-10, 3-(3-chloro-5-methylphenyl)-6-(5-hydroxypyridin-3-yl)-N,7-dimethyl-N-[(2S)-pyrrolidin-2-ylmethyl]-3,4-dihydroquinazoline-4-carboxamide], the EC50 was under 100 nM.

Consider `CC[C@H](N)CN(C)C(=O)C1c2cc(-c3cc(O)ccc3C)c(Cl)cc2N=CN1c1cc(C)cc(C)c1` (stereo partly drawn) [Compound 1-8, N-[(2S)-2-aminobutyl]-7-chloro-3-(3,5-dimethylphenyl)-6-(5-hydroxy-2-methylphenyl)-N-methyl-3,4-dihydroquinazoline-4-carboxamide], for which the EC50 was under 100 nM.

Consider `Cc1cc(C)cc(N2C=Nc3cc(Cl)c(-c4cccc(O)c4)cc3C2C(=O)N(C)C[C@H](C)N)c1` (stereo partly drawn) [Compound 1-4, N-[(2S)-2-aminopropyl]-7-chloro-3-(3,5-dimethylphenyl)-6-(3-hydroxyphenyl)-N-methyl-3,4-dihydroquinazoline-4-carboxamide], for which the EC50 is under 100 nM.

On to `COc1cc(-c2cc3c(cc2C)N=CN(c2cc(C)cc(Cl)c2)C3C(=O)N(C)C[C@@H]2CCCN2)ccc1C` (stereo partly drawn) [Compound 2-16, 3-(3-chloro-5-methylphenyl)-6-(3-methoxy-4-methylphenyl)-N,7-dimethyl-N-[(2S)-pyrrolidin-2-ylmethyl]-3,4-dihydroquinazoline-4-carboxamide], for which the EC50 was under 100 nM.

With `Cc1cc(Cl)cc(N2C=Nc3cc(C)c(-c4cccnc4)cc3C2C(=O)N(C)C[C@@H]2CCCN2)c1` (stereo partly drawn) [Compound 2-2, 3-(3-chloro-5-methylphenyl)-N,7-dimethyl-6-(pyridin-3-yl)-N-[(2S)-pyrrolidin-2-ylmethyl]-3,4-dihydroquinazoline-4-carboxamide], the EC50 was in the range of 100 to 1000 nM.

With `CCN(C[C@@H]1CCCN1)C(=O)C1c2cc(-c3cccc(O)c3)c(C)cc2N=CN1c1cc(C)cc(Cl)c1` (stereo partly drawn) [Compound 1-31, 3-(3-chloro-5-methylphenyl)-N-ethyl-6-(3-hydroxyphenyl)-7-methyl-N-[(2S)-pyrrolidin-2-ylmethyl]-3,4-dihydroquinazoline-4-carboxamide], the EC50 is under 100 nM.

For `Cc1cc(Cl)cc(N2C=Nc3cc(C)c(-c4cc(Cl)cc(C5(C#N)CC5)c4)cc3C2C(=O)N(C)C[C@@H]2CCCN2)c1` (stereo partly drawn) [Compound 2-17, 6-[3-chloro-5-(1-cyanocyclopropyl)phenyl]-3-(3-chloro-5-methylphenyl)-N,7-dimethyl-N-[(2S)-pyrrolidin-2-ylmethyl]-3,4-dihydroquinazoline-4-carboxamide], the EC50 was under 100 nM.

For the compound `CC[C@H](N)CN(C)C(=O)C1c2cc(-c3cccc(O)c3)c(Cl)cc2N=CN1c1cc(C)cc(C)c1` (stereo partly drawn) [Compound 1-5, N-[(2S)-2-aminobutyl]-7-chloro-3-(3,5-dimethylphenyl)-6-(3-hydroxyphenyl)-N-methyl-3,4-dihydroquinazoline-4-carboxamide], the concentration for a half-maximal effect (EC50) is under 100 nM.

For `Cc1cc(Cl)cc(N2C=Nc3cc(C)c(-c4cccc(C(F)(F)F)c4)cc3C2C(=O)N(C)C[C@@H]2CCCN2)c1` (stereo partly drawn) [Compound 1-43, 3-(3-chloro-5-methylphenyl)-N,7-dimethyl-N-[(2S)-pyrrolidin-2-ylmethyl]-6-[3-(trifluoromethyl)phenyl]-3,4-dihydroquinazoline-4-carboxamide], the EC50 was under 100 nM.

Regarding `CC[C@H](N)CN(C)C(=O)C1c2cc(-c3cccc(O)c3F)c(C)cc2N=CN1c1cc(C)cc(C)c1` (stereo partly drawn) [Compound 1-11, N-[(2S)-2-aminobutyl]-3-(3,5-dimethylphenyl)-6-(2-fluoro-3-hydroxyphenyl)-N,7-dimethyl-3,4-dihydroquinazoline-4-carboxamide], the EC50 is under 100 nM.

For `Cc1cc(Cl)cc(N2C=Nc3cc(C)c(-c4cc(O)ccc4Cl)cc3C2C(=O)N(C)C[C@@H]2CCCN2)c1` (stereo partly drawn) [Compound 1-20, 6-(2-chloro-5-hydroxyphenyl)-3-(3-chloro-5-methylphenyl)-N,7-dimethyl-N-[(2S)-pyrrolidin-2-ylmethyl]-3,4-dihydroquinazoline-4-carboxamide], the EC50 is under 100 nM.

On to `CC1=Nc2ccc(-c3cc(O)ccc3Cl)cc2C(C(=O)NC[C@@H]2CCCN2)N1c1cc(C)cc(Cl)c1` (stereo partly drawn) [Compound 1-28, 6-(2-chloro-5-hydroxyphenyl)-3-(3-chloro-5-methylphenyl)-2-methyl-N-[(2S)-pyrrolidin-2-ylmethyl]-3,4-dihydroquinazoline-4-carboxamide], for which the EC50 was under 100 nM.

Turning to `Cc1cc(Cl)cc(N2C=Nc3ccc(-c4cc(O)cc(F)c4)cc3C2C(=O)N(C)C[C@@H]2CCCN2)c1` (stereo partly drawn) [Compound 1-50, 3-(3-chloro-5-methylphenyl)-6-(3-fluoro-5-hydroxyphenyl)-N-methyl-N-[(2S)-pyrrolidin-2-ylmethyl]-3,4-dihydroquinazoline-4-carboxamide], the EC50 was under 100 nM.

Take `Cc1cc(Cl)cc(N2C=Nc3cc(C)c(-c4cnn(C)c4)cc3C2C(=O)N(C)C[C@@H]2CCCN2)c1` (stereo partly drawn) [Compound 2-1, 3-(3-chloro-5-methylphenyl)-N,7-dimethyl-6-(1-methyl-1H-pyrazol-4-yl)-N-[(2S)-pyrrolidin-2-ylmethyl]-3,4-dihydroquinazoline-4-carboxamide]: the EC50 was in the range of 100 to 1000 nM.

Consider `CCOC(=O)Cc1cccc(-c2cc3c(cc2C)N=CN(c2cc(C)cc(Cl)c2)C3C(=O)N(C)C[C@@H]2CCCN2)c1` (stereo partly drawn) [Compound 1-49, ethyl 2-{3-[3-(3-chloro-5-methylphenyl)-7-methyl-4-{methyl[(2S)-pyrrolidin-2-ylmethyl]carbamoyl}-3,4-dihydroquinazolin-6-yl]phenyl}acetate], for which the EC50 fell in the range of 100 to 1000 nM.

`Cc1cc(Cl)cc(N2C=Nc3cc(C)c(-c4cc(F)cc(C(F)(F)F)c4)cc3C2C(=O)N(C)C[C@@H]2CCCN2)c1` (stereo partly drawn) [Compound 2-20, 3-(3-chloro-5-methylphenyl)-6-[3-fluoro-5-(trifluoromethyl)phenyl]-N,7-dimethyl-N-[(2S)-pyrrolidin-2-ylmethyl]-3,4-dihydroquinazoline-4-carboxamide]: the EC50 is under 100 nM.

For `COc1cc(F)cc(-c2cc3c(cc2C)N=CN(c2cc(C)cc(Cl)c2)C3C(=O)N(C)C[C@@H]2CCCN2)c1` (stereo partly drawn) [Compound 2-35, 3-(3-chloro-5-methylphenyl)-6-(3-fluoro-5-methoxyphenyl)-N,7-dimethyl-N-[(2S)-pyrrolidin-2-ylmethyl]-3,4-dihydroquinazoline-4-carboxamide], the EC50 is under 100 nM.

Turning to `CC[C@H](N)CN(C)C(=O)C1c2cc(-c3cccc(O)c3)c(C)cc2N=CN1c1cc(C)cc(C)c1` (stereo partly drawn) [Compound 1-9, N-[(2S)-2-aminobutyl]-3-(3,5-dimethylphenyl)-6-(3-hydroxyphenyl)-N,7-dimethyl-3,4-dihydroquinazoline-4-carboxamide], the half-maximal effective concentration (EC50) is under 100 nM.
